The record followed here is patent US11980633B2, “Method for treating cancer using a combination of DNA-damaging agents and DNA-PK inhibitors” (Vertex Pharmaceuticals Incorporated, priority 2016, dated 2024).

The test system of this assay is pKAP1 and pH2AX levels in MDA-MB-436 and MDA-MB-468 breast cancer cells. Briefly: pKAP1 and pH2AX immunoblot, Compound B-2 and doxorubicin in MDA-MB-436 and MDA-MB-468 cells. Format: cell-based, human. As to conditions: 1 μM Compound B-2 + 500 nM doxorubicin; at 8 h. The procedure: Materials and Methods. The human cancer cell lines A549 (CCL-185), DU4475 (HTB-123), MDA-MB-436 (HTB-130), and MDA-MB-468 (HTB-132) were obtained from American Type Culture Collection (ATCC; Manassas, VA). A 10 mM stock solution of Compound B-1 or Compound B-2 was prepared in DMSO and stored at −20° C. Etoposide and doxorubicin were purchased from Sigma-Aldrich (St. Louis, MO).
The A549 human lung cancer cell line was purchased from ATCC and was cultured in DMEM supplemented with 10% fetal bovine serum, 1× non-essential amino acids and 1× Penicillin/Streptomycin (complete medium). Cells were maintained at a subconfluent state by passaging every 2-3 days. Human breast cancer cells lines DU4475, MDA-MB-436, and MDA-MB-468 were purchased from ATCC and cultured in DMEM supplemented with 10% fetal bovine serum, 1× Glutamax and Penicillin/Streptomycin. Cells were maintained at a subconfluent state by passaging every 2-3 days.
Compound B-1 and Compound B-2 used in these experiments were not prepared as a co-crystals.
Breast cancer cell lines grown in 24-well (Costar, catalog #3526) or 6-well (Costar, catalog #3516) tissue culture plates to 70-80% confluence were pre-incubated with 1 μM Compound B-2 or DMSO for 15 min. Doxorubicin was added to a final concentration of either 100 nM or 500 nM from a 1000× stock prepared in DMSO. Cells were then incubated for the indicated amount of time and harvested for analysis.
Cell Lysis and Western Blot Analysis. […]
To determine that enhancement of DNA damage by concurrent treatment of cells with Compound B-2 and doxorubicin was not specific to DU4475 cells, two additional breast cancer cell lines, MDA-MB-436 and MDA-MB-468, were also pre-incubated with 1 μM Compound B-2 for 15 min, followed by addition of 500 nM doxorubicin. Cells were harvested at various time points following doxorubicin addition and analyzed for levels of pKAP1 and pH2AX by immunoblotting.

As to `[2H]c1nc(C)nc([2H])c1-c1cc(NC[C@@H](C)c2cccc3c(C(=O)NC)ccnc23)ncn1` [Compound B-2], the “pH2AX level, max enhancement vs doxorubicin alone” value worked out at 1.5 fold and the “pKAP1 level, max enhancement vs doxorubicin alone” value is reported as 3.5-4 fold.
